Laboratory results: publication PMC4624480 (Biochemistry, 2015)
Values after ≈ are worked out from the molar mass of the structure shown.

Tests used:
E. coli MenE (ecMenE) = E. coli MenE (ecMenE) (Escherichia coli, UniProt P37353); assay type: biochemical
B. subtilis (ATCC 6057) = experiment: Antibacterial activity; assay type: cell-based
[1] = test system: methicillin-resistant S. aureus (ATCC BAA-1762); experiment: Antibacterial activity; assay type: cell-based
M. tuberculosis (H37Rv) [2] = experiment: Antibacterial activity; assay type: cell-based
[3] = test system: methicillin-resistant S. aureus (ATCC BAA-1762); experiment: Growth rescue: MIC with exogenous MK4, MRSA; assay type: cell-based; conditions: exogenous 10 μg/mL MK4 added to the synthetic growth media
M. tuberculosis (H37Rv) [4] = experiment: Growth rescue: MIC with exogenous MK4, M. tuberculosis; assay type: cell-based; conditions: exogenous 10 μg/mL MK4 added to the synthetic growth media
[5] = test system: Vero (monkey kidney epithelial) cells; experiment: Cytotoxicity, Trypan Blue; assay type: cell-based; conditions: minimum concentration giving ~90% cell death
[6] = test system: menaquinone levels in S. aureus; experiment: Quantification of menaquinone levels by LC-MS/MS; assay type: cell-based
[7] = test system: B. subtilis, MRSA and M. tuberculosis; experiment: Antibacterial activity; assay type: cell-based; conditions: summary in text over B. subtilis, MRSA (S. aureus)
E. coli (K-12) = experiment: Antibacterial activity; conditions: aerobic, MIC-99 by visual inspection
ecMenE (wild-type) = ecMenE (wild-type) (Escherichia coli, UniProt P37353); experiment: Isothermal titration calorimetry, wild-type ecMenE; conditions: ITC, wt ecMenE
pKa of the OSB analogue = pKa of the OSB analogue (side chain)

Sequence of ecMenE (wild-type) (P37353 whole entry): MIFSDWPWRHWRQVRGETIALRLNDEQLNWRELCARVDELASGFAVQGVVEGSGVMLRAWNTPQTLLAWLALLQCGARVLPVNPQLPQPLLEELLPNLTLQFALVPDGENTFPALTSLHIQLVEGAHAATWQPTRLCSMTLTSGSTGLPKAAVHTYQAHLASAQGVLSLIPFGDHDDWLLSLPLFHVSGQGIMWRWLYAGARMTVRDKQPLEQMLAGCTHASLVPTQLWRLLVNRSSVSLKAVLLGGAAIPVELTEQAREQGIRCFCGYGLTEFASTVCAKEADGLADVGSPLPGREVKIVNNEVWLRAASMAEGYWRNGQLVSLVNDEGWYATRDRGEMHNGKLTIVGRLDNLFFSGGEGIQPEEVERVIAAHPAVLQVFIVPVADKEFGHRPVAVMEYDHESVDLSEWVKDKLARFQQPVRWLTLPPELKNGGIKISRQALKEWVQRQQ
Sequence of E. coli MenE (ecMenE) (P37353 whole entry): as above

O=C(O)CCC(=O)c1ccccc1C(=O)O [OSB, o-succinylbenzoate]
Km (E. coli MenE (ecMenE); read-out: KM OSB, wt ecMenE, pH 7.4, 25°C): 1 ± 0.02 µM
kcat (E. coli MenE (ecMenE); wt ecMenE, substrate OSB): 0.767 ± 0.002 s⁻¹

Nc1ncnc2c1ncn2[C@@H]1O[C@H](COS(=O)(=O)NC(=O)CCC(=O)c2ccccc2C(=O)O)[C@@H](O)[C@H]1O [compound 1, OSB-AMS]
MIC (B. subtilis (ATCC 6057)): 62.5 µg/mL (≈ 114 µM)
MIC ([1]; MRSA (ATCC BAA-1762)): 31.25 µg/mL (≈ 56.8 µM)
antibacterial activity lower than the IC50 for enzyme inhibition ([1]; antibacterial activity vs enzyme IC50): ~ 1000 fold
MIC (M. tuberculosis (H37Rv) [2]): 125 µg/mL (≈ 227 µM)
MIC + MK4 [3]: > 250 µg/mL
MIC + MK4 (M. tuberculosis (H37Rv) [4]): > 250 µg/mL
Cytotoxicity [5]: 125 µg/mL
decrease in MK levels ([6]; MRSA, 15.6 μM OSB-AMS (half-MIC)): ~ 60%
decrease in the levels of all menaquinones ([6]; S. aureus treated with OSB-AMS below its MIC): 3–5 fold
MIC [7]: 30 to 125 µg/mL
MIC (E. coli (K-12)): > 500 µg/mL
ΔG (ecMenE (wild-type)): -10.0 kcal/mol
ΔH (ecMenE (wild-type)): -2.0 ± 0.1 kcal/mol
Kd (ecMenE (wild-type); read-out: Kd OSB-AMS): 44 ± 11 nM

MSB-AMS [compound 2]
effect on MenE activity (E. coli MenE (ecMenE)): did not affect MenE activity
inhibition of ecMenE (E. coli MenE (ecMenE)): no inhibition
pKa (pKa of the OSB analogue): 4
